From ChEMBL document CHEMBL5096157, “Metalloaminopeptidases of the Protozoan Parasite Plasmodium falciparum as Targets for the Discovery of Novel Antimalarial Drugs” (J Med Chem, 2021)
Where “and” joins values, the source holds several entries; their conditions need not be identical. Identical values can stand only once.

Tests used:
[1] = Inhibition of recombinant Plasmodium falciparum A-M1 using Leu-pNA as substrate by microplate reader analysis
[2] = system: Plasmodium yoelii; test: In vivo antiplasmodial activity against Plasmodium yoelii 17X infected in C57BL6 mouse assessed as mean survival time at 20 mg/kg, ip administered twice daily for 4 days after 2 hrs infection Giemsa staining based microscopic analysis relative to control; type: functional; details: time 4 day
[3] = system: Plasmodium falciparum; test: Antimalarial activity against multidrug resistant Plasmodium falciparum Dd2 incubated for 48 hrs by [3H]hypoxanthine incorporation assay based MicroBeta plate reader
[4] = system: Plasmodium berghei; test: In vivo antiplasmodial activity against Plasmodium berghei K173 infected in C57BL6 mouse assessed as mean survival time at 20 mg/kg, ip administered twice daily for 4 days after 2 hrs infection Giemsa staining based microscopic analysis relative to control; type: functional; details: time 4 day
[5] = system: Plasmodium falciparum; test: Antimalarial activity against Plasmodium falciparum 3D7 CQ-sensitive incubated for 48 hrs by [3H]hypoxanthine incorporation assay based MicroBeta plate reader
[6] = system: Plasmodium falciparum; test: Antimalarial activity against Plasmodium falciparum D10 incubated for 48 hrs by [3H]hypoxanthine incorporation assay; type: functional, organism-based
[7] = Inhibition of recombinant Plasmodium falciparum A-M17 assessed as inhibition constant using H-Leu-NHMec as substrate
[8] = system: Plasmodium falciparum; test: Antimalarial activity against multidrug resistant Plasmodium falciparum W2 assessed as reduction in proliferation incubated for 24 hrs; type: functional, organism-based; details: W2, 24 h
[9] = Binding affinity to Plasmodium falciparum recombinant MetAP2 by Dex-Fum-mediated mammalian three-hybrid assay
[10] = system: Plasmodium falciparum; test: Antimalarial activity against Plasmodium falciparum NF54 wild-type assessed as reduction in proliferation incubated for 24 hrs by [3H]hypoxanthine incorporation assay; type: functional, organism-based
[11] = system: Plasmodium falciparum; test: Antimalarial activity against Plasmodium falciparum 3D7 incubated for 48 hrs by [3H]hypoxanthine incorporation assay; type: functional, organism-based
[12] = Inhibition of Plasmodium falciparum M18 aspartyl aminopeptidase assessed as inhibition constant
[13] = Inhibition of Plasmodium falciparum alanyl aminopeptidase assessed as inhibition constant using H-Leu-NHMec as substrate by spectrofluorimeter based analysis
[14] = system: Plasmodium falciparum; test: Antimalarial activity against erythrocytic stage Plasmodium falciparum in human RBC assessed as inhibition of parasite growth incubated for 48 hrs by [3H]hypoxanthine incorporation assay; type: functional, organism-based, Red blood cell; details: Erythrocyte
[15] = system: Plasmodium falciparum; test: Antimalarial activity against erythrocytic stage Plasmodium falciparum in human RBC assessed as inhibition of parasite growth at 10 uM incubated for 48 hrs by [3H]hypoxanthine incorporation assay relative to control; type: functional, Red blood cell; design: scale not given: the % may be the effect or the level left
[16] = Clearance in CD-1 mouse at 3 mg/kg, iv measured after 8 hrs hrs by UHPLC analysis; type: ADME, organism-based; details: in vivo
[17] = Inhibition of recombinant Plasmodium falciparum A-M1 assessed as inhibition constant using para-nitroanilide as substrate at 10 nM by spectrophotometer based method
[18] = system: Plasmodium falciparum; test: Antimalarial activity against Plasmodium falciparum chloroquine-resistant FcB1 Columbia assessed as inhibition of growth by liquid scintillation counting method; type: functional, organism-based
[19] = Half life in CD-1 mouse at 3 mg/kg, iv measured after 8 hrs hrs by UHPLC analysis; type: ADME, organism-based; details: in vivo
[20] = system: Plasmodium falciparum; test: Antimalarial activity against Plasmodium falciparum 3D7 CQ-sensitive assessed as inhibition of growth by liquid scintillation counting method; type: functional, organism-based
[21] = system: Plasmodium chabaudi; test: In vivo antiplasmodial activity against Plasmodium chabaudi chabaudi 864VD infected in BALB/c mouse assessed as reducing parasitaemia at 12 to 24 mg/kg, ip administered for 3 days after infection and measured after 25 days Giemsa staining based microscopic analysis relative to control; type: functional; design: scale not given: the % may be the effect or the level left; details: dose 12-24 mg/kg, time 25 day
[22] = Inhibition of recombinant Plasmodium falciparum A-M17 assessed as inhibition constant using leucine para-nitroanilide as substrate at 60 nM by spectrophotometer based method
[23] = system: Plasmodium chabaudi; test: In vivo antiplasmodial activity against Plasmodium chabaudi chabaudi infected in C57/BL6J mouse assessed as reducing parasitaemia at 50 mg/kg, po administered for 4 days relative to control; type: functional; design: scale not given: the % may be the effect or the level left; details: time 4 day
[24] = system: Plasmodium chabaudi; test: In vivo antiplasmodial activity against Plasmodium chabaudi chabaudi infected in C57/BL6J mouse assessed as reducing parasitaemia at 25 mg/kg, po administered for 4 days relative to control; type: functional; design: scale not given: the % may be the effect or the level left; details: time 4 day
[25] = system: Plasmodium falciparum; test: Antimalarial activity against Plasmodium falciparum K1 incubated for 48 hrs by [3H]hypoxanthine incorporation assay; type: functional, organism-based
[26] = system: Plasmodium chabaudi; test: In vivo antiplasmodial activity against Plasmodium chabaudi chabaudi infected in C57/BL6J mouse assessed as reducing parasitaemia at 50 to 100 mg/kg, po administered for 4 days relative to control; type: functional; design: scale not given: the % may be the effect or the level left; details: dose 50-100 mg/kg, time 4 day
[27] = system: Plasmodium chabaudi; test: In vivo antiplasmodial activity against Plasmodium chabaudi chabaudi infected in C57/BL6J mouse assessed as reducing parasitaemia at 100 mg/kg, po administered for 4 days relative to control; type: functional; design: scale not given: the % may be the effect or the level left; details: time 4 day

In the case of `CC(C)CN(CCCN1CCN(CCCNc2ccnc3cc(Cl)ccc23)CC1)C(=O)CC(=O)NO`, the IC50 [1] is reported as 854 nM.
Work on `Cc1nc(-c2ccccn2)nc(NCCc2ccccc2)c1Cl` yielded an Activity [2] of 80%, an IC50 [3] of 900 nM and an Activity [4] of 60%. It also gave an IC50 [5] of 1590 nM.
Compound `NCCC(=O)N(CCCN1CCN(CCCNc2ccnc3cc(Cl)ccc23)CC1)CC1CC1` has an IC50 [1] of 21000 nM.
Compound `CC(C)C[C@H](NC(=O)[C@@H](O)[C@H](N)Cc1ccc([N+](=O)[O-])cc1)C(=O)O` has an IC50 [6] of 8000 nM and a Ki [7] of 2.7 nM.
In the case of `CO[C@H]1[C@H](C2(C)O[C@@H]2CC=C(C)C)[C@]2(CC[C@H]1OC(=O)NC(=O)CCl)CO2` (single isomer, unassigned), the IC50 [8] is reported as 3 nM, the IC50 [9] is reported as 2000 nM and the IC50 [10] is reported as 2 nM.
Compound `CC(C)CN(CCCN1CCN(CCCNc2ccnc3cc(Cl)ccc23)CC1)C(=O)C(N)C(=O)NO` (stereo unspecified) has an IC50 [1] of 2500 nM.
In the case of `CO[C@H](C(=O)NO)[C@@H](CC(C)C)C(=O)N[C@H](C(=O)O)c1ccccc1`, the IC50 [11] is reported as 2000 nM and the Ki [7] is reported as 25000 nM and 25700 nM.
Compound `N[C@@H](CCC(=O)O)P(=O)(O)O` has a Ki [12] of 340 nM.
In the case of `COC(=O)[C@H](CC(C)C)NC(=O)[C@@H](O)[C@H](N)Cc1ccccc1` [BESTATIN METHYL ESTER], the IC50 [6] is reported as 20500 nM and the Ki [7] is reported as 138 nM.
Work on `NC(CCc1ccccc1)P(=O)(O)CC(Cc1ccc(O)cc1)C(=O)O` (stereo unspecified) yielded a Ki [13] of 232 nM.
For `CN1CCc2cccc3c2[C@@H]1Cc1ccc(O)c(O)c1-3` [(S)APOMORPHINE], the IC50 [14] was 4000 nM and the Activity [15] was 87%.
`CO[C@]12C(=O)CC[C@@]1(CO)[C@H]2[C@@]1(C)O[C@@H]1CC=C(C)C` showed an IC50 [8] of 270 nM, an IC50 [9] of 116000 nM and an IC50 [10] of 160 nM.
In the case of `NC1CCc2cccc(-c3ccccc3)c2CC1=O` (stereo unspecified), the clearance [16] is reported as 43 mL/min/kg, the Ki [17] is reported as 50 nM and the IC50 [18] is reported as 6500 nM. It also gave a half-life [19] of 2.2 h, an IC50 [20] of 11200 nM and an Activity [21] of 40%. It also gave a Ki [22] of over 100000 nM.
Work on `Oc1ccc(CCNc2c3ccccc3nc3ccccc23)cc1O` yielded an IC50 [14] of 1300 nM and an Activity [15] of 96%.
`CO[C@H](C(=O)NO)[C@@H](CC(C)C)C(=O)N[C@H](C(=O)OC1CCCC1)c1ccccc1` gave an Activity [23] of 52%, an IC50 [11] of 370 nM and an Activity [24] of 43%. For the same compound, the IC50 [25] was 376 nM, the Activity [26] was 66% and the Ki [7] was 75000 nM and 76000 nM.
Work on `CC(C)C[C@H](NC(=O)[C@@H](O)[C@H](N)Cc1ccccc1)C(=O)O` [UBENIMEX] yielded an IC50 [11] of 5000 nM, an IC50 [6] of 14900 nM and an Activity [27] of 34%.
